In brackets after ≈: the same amount, converted by molar mass. Several values for one entry are separate records, joined by “and”; a condition that tells them apart may be missing. Equal entries are not always repeated.
What was measured:
[1] = in vitro; settings: human, hela cells, % viability
[2] = tested on: HeLa; settings: bulk resorufin, single well, 28.5 h, 10 µM, Bulk resorufin fluorescence
[3] = in vitro; set-up: Viability of infected HeLa host cells, resazurin conversion, bulk resorufin fluorescence relative to DMSO; settings: human, hela cells; bulk resorufin, mean of 3
[4] = tested on: T1, CTL2-GFP (C. trachomatis L2/434/Bu, GFP-expressing); test: microbe, parasite or virus in culture; set-up: C. trachomatis growth in HeLa, dose-response, mean of bulk GFP fluorescence and imaged total inclusion area; settings: Chlamydia trachomatis, HeLa, 28.5 h; mean of GFP and inclusion area
T1 construct: L2/434/Bu, GFP-expressing
Text: (§1) We screened a library of 36,785 small molecules displaying drug-like properties and covering a wide chemical space (Fig 1A and S2A Data). In this process, we also complemented the assay described above with an imaging-based readout (Fig 1B). After measurements of bulk GFP and resorufin fluorescence, cells were fixed, stained with the DNA dye Hoechst, and imaged at a high-content imaging platform to detect chlamydial inclusions (GFP) and host cell nuclei (Hoechst). The total area and number of inclusions in individual wells and the number of nuclei then served as additional proxies for chlamydial growth and host cell viability. […] MICs were calculated as described above.

[5] = tested on: T1, CTL2-GFP (C. trachomatis L2/434/Bu, GFP-expressing); test: microbe, parasite or virus in culture; set-up: species or system HeLa; C. trachomatis growth in HeLa, dose-response, mean of bulk GFP fluorescence and imaged total inclusion area; settings: Chlamydia trachomatis, 28.5 h; mean of GFP and inclusion area
Text: as §1

SMILES | viability at 28.5 h, 10 µM [1] | % viability [2] | also measured
Cc1oc(C2CC2)cc1C(=O)N[C@H](C)Cn1nnc2ccccc21 [CBK284258] | 78.1% | 80.8% | 
O=C(NC[C@@H]1CCCN(C(=O)c2cscn2)C1)c1cccs1 [CBK284263] | 85.7% | 93.5% | 
CC(C)(C)OC(=O)N1CCC[C@H]([C@H](O)c2ccc(F)cc2)C1 [CBK284298] | 92.3% | 80.1% | 
CC[C@H](Cn1ncc2ccccc2c1=O)NC(=O)c1ccco1 [CBK284300] | 78.6% | 86.8% | 
CC[C@H](Cn1ncc2ccccc2c1=O)NC(=O)C1CCCC1 [CBK284302] | 94.2% | 102% | 
O=C(C1CC1)N1CCC[C@H](Cn2nc(-c3cccs3)ccc2=O)C1 [CBK284314] | 74.7% | 91.8% | 
O=C(NCCc1ccccc1)[C@@H]1C=CCN1C(=O)C1CC1 [CBK284315] | 93.6% | 81.8% | 
O=C(NCCc1ccccc1)[C@@H]1C=CCN1C(=O)c1ccco1 [CBK284316] | 93% | 90% | 
C[C@@H](Cn1nnc2ccccc21)NC(=O)c1ccco1 [CBK284319] | 75.9% | 86.3% | 
CCS(=O)(=O)N1CC=C[C@H]1C(=O)NCCc1ccccc1 [CBK284325] | 107% | 89.7% | 
CC(C)(C)OC(=O)N1CCC[C@@H](CNC(=O)c2cccs2)C1 [CBK284332] | 104% | 90.2% | 
CC(C)[C@@H](Cn1c(=O)oc2ccccc21)NC(=O)c1ccco1 [CBK284531] | 94.1% | 86.1% | 
C[C@H](Cn1c(=O)oc2ccccc21)NC(=O)c1cccs1 [CBK284532] | 85% | 90.7% | 
C[C@@H](Cn1c(=O)oc2ccccc21)NC(=O)Cc1cccs1 [CBK284533] | 92.9% | 79.8% | 
C[C@H](Cn1nc2c(cc1=O)CCCCC2)NC(=O)c1cccs1 [CBK284545] | 101% | 85.9% | 
C[C@@H]1CN2CCCC2CN1Cc1cccs1 (stereo partly drawn) [CBK284550] | 85.6% | 98.3% | 
C[C@@H]1CN2CCCC2CN1CC1=Cc2ccccc2OC1 (stereo partly drawn) [CBK284552] | 88.6% | 103% | 
C[C@@H]1CN2C[C@H](O)CC2CN1Cc1ccccc1C(F)(F)F (stereo partly drawn) [CBK284556] | 80.7% | 100% | 
CS(=O)(=O)N1C2CCC(C2)[C@H]1COc1cccc(C(F)(F)F)c1 (stereo partly drawn) [CBK284596] | 98.7% | 107% | 
O=C(C1CC1)N1C2CCC(C2)[C@H]1COc1ccc(F)cc1 (stereo partly drawn) [CBK284597] | 95% | 100% | 
CCOC(=O)c1[nH]c(C)c(CN2CC3CCCN3C[C@@H]2C)c1C (stereo partly drawn) [CBK285043] | 110% | 105% | 

SMILES | viability at 28.5 h, 10 µM [1] | % viability [2] | also measured
C[C@H]1CN2C[C@H](O)CC2CN1Cc1cc(Br)cs1 (stereo partly drawn) [CBK285044] | 103% | 94% | 
COc1ccc2c(CN3CC4CCCN4C[C@H]3C)cn(C)c2c1 (stereo partly drawn) [CBK285164] | 92.4% | 84% | 
O=C(Cn1c([C@H]2CCCO2)cc2cccnc21)NC1CCCC1 [CBK285219] | 88.8% | 85.4% | 
O=C(c1cccnc1)N1C2CCC(C2)[C@H]1COc1ccc(F)cc1 (stereo partly drawn) [CBK285268] | 90.2% | 87.8% | 
C[C@@H]1CN2CCCC2CN1Cc1cc(F)cc(F)c1 (stereo partly drawn) [CBK285405] | 96.1% | 105% | 
C[C@@H]1CN2CCCC2CN1Cc1ccsc1 (stereo partly drawn) [CBK285411] | 110% | 109% | 
C[C@@H]1CN2C[C@H](O)CC2CN1Cc1cccc(C(F)(F)F)c1 (stereo partly drawn) [CBK285413] | 91.7% | 88.1% | 
C=CCn1cc(CN2C[C@@H]3CCCN3C[C@H]2CCSC)c(C)n1 [CBK285420] | 87.6% | 106% | 
COCCn1c(C)cc(CN2CC3CCCN3C[C@@H]2C)c1C (stereo partly drawn) [CBK285421] | 83.8% | 101% | 
CCOc1ccc(CN2CC3CCCN3C[C@H]2C)cc1 (stereo partly drawn) [CBK285422] | 87.8% | 100% | 
COCCn1cc(CN2CC3CCCN3C[C@H]2C)c2ccccc21 (stereo partly drawn) [CBK285427] | 95.7% | 106% | 
Cc1cc(CN2CC3CCCN3C[C@@H]2C)c(C)n1-c1ccccn1 (stereo partly drawn) [CBK285431] | 87% | 98.1% | 
CC(C)n1cc(CN2CC3C[C@@H](O)CN3C[C@H]2C)c2ccccc21 (stereo partly drawn) [CBK285437] | 107% | 88.8% | 
C[C@@H]1CN2CCCC2CN1Cc1cc(F)ccc1F (stereo partly drawn) [CBK285444] | 104% | 94.9% | 
C[C@@H]1CN2CCCC2CN1Cc1ccc(F)c(F)c1 (stereo partly drawn) [CBK285445] | 99.5% | 105% | 
CCn1ncc(CN2C[C@@H]3CCCN3C[C@@H]2CCSC)c1C [CBK285446] | 109% | 110% | 
Cc1cc(CN2CC3CCCN3C[C@H]2C)oc1C (stereo partly drawn) [CBK285449] | 96.9% | 103% | 
CCn1cc(CN2C[C@@H]3CCCN3C[C@H]2CCSC)c(C)n1 [CBK285460] | 96.3% | 99.1% | 
COc1ccc(CC(=O)N2CCN(Cc3ccco3)C[C@H]2C)cc1 [CBK285483] | 96% | 104% | 
O=C(NC1CC1)[C@H]1C=CCN1S(=O)(=O)c1cccc(F)c1 [CBK285485] | 111% | 98.9% | 
O=C(CN1C(=O)[C@@H]2CCCN2c2ncccc21)NCc1ccccc1 [CBK286203] | 115% | 117% | 

SMILES | viability at 28.5 h, 10 µM [1] | % viability [2] | also measured
O=C(CN1C(=O)[C@@H]2CCCN2C(=O)c2ccccc21)N1CCOCC1 [CBK286401] | 83.9% | 103% | 
Cc1cc2ncn(C3CC(=O)N(c4ccc(C(=O)O)cc4)C3=O)c2cc1C (stereo not drawn) [CBK286586] | 89.4% | 92.4% | 
O=C(O)c1cc(-c2ccccc2)c2c(=O)[nH][nH]c2n1 [CBK286631] | 105% | 102% and 88.2% | 
O=C(O)c1cccc2c1C(=O)N(Cc1ccccc1)C2 [CBK286872] | 91% | 89.1% | 
NS(=O)(=O)c1ccc2nc(NC(=O)c3ccc(Cl)s3)sc2c1 [CBK287320] | 108% | 89.6% | 
Cc1ccc(-c2csc3c(=O)[nH]c(N4CCC5(CC4)OCCO5)nc23)cc1 [CBK288034] | 83.9% | 92.2% | 
NCCc1c(C23CC4CC(CC(C4)C2)C3)[nH][nH]c1=O [CBK288081] | 86.5% | 106% | 
O=C(CC1C(=O)NC(=O)N1Cc1ccccc1)NCc1ccccc1 (stereo not drawn) [CBK288083] | 87.8% | 94.6% | 
Cc1ccc(Nc2cc(N3CCC(C(=O)O)CC3)ncn2)cc1 [CBK288121] | 104% | 91.3% | 
CN1CCc2[nH]c(=S)c(C#N)c(-c3ccccc3)c2C1 [CBK288354] | 96.5% | 87.1% | 
C/C(=N\O)c1cc2cc(Cl)cc(Cl)c2oc1=O [CBK288516] | 84.5% | 90.6% | 
COc1ccccc1N1C(=O)CC(=O)N=C1S [CBK288517] | 89.5% | 89.3% | 
Cc1cc(CNC(=S)NC2CCCCC2)nn1C [CBK288519] | 82.5% | 94% | 
COCCn1c(S)nc(=O)c2cc(C)cnc21 [CBK288520] | 88% | 92.2% | 
O=C1CSC(c2ccc(Br)cc2)N1O (stereo not drawn) [CBK288521] | 89% | 97.7% | 
CCOc1ccc(CCN2C(=O)CN=C2S)cc1OCC [CBK288528] | 103% | 98.3% | 
Cc1ccc(Cn2cc(Br)c(NC(=O)C(=O)O)n2)cc1 [CBK288529] | 96.9% | 88.4% | 
COc1ccc(C(NC(=O)Cc2cn3ccsc3n2)C2CC(O)C2)cn1 (stereo not drawn) [CBK306910] | 82.2% | 97% | 
COc1nccc(NC(c2cnn(C)c2)[C@H]2C[C@H](O)C2)c1C#N (stereo partly drawn) [CBK307283] | 94% | 91.1% | 
OCCNc1nc(Nc2ccc(Br)cc2)nc2ccccc12 [c17e] |  |  | viability at 28.5 h, 0.000416667 µM [3]: 95.2%; viability at 28.5 h, 0.00125 µM [3]: 87.1%; viability at 28.5 h, 0.00375 µM [3]: 86.4%; viability at 28.5 h, 0.0123333 µM [3]: 86.4%; viability at 28.5 h, 0.037 µM [3]: 88.2%; viability at 28.5 h, 0.111 µM [3]: 83.5%; viability at 28.5 h, 0.333 µM [3]: 88.9%; viability at 28.5 h, 1 µM [3]: 86%; viability at 28.5 h, 3 µM [3]: 84.9%; viability at 28.5 h, 10 µM [3]: 81.2%; viability at 28.5 h, 30 µM [3]: 71.2%; IC50 [4]: 1.24 µM; MIC [5]: 3.14 µM (≈ 1.13 µg/mL)

— PMC12040169 (PLOS Biology, 2025)
